Source: patent US20210045385A1, “PYRIDAZINONE-SUBSTITUTED KETOXIMES AS HERBICIDES” (FMC Corporation, priority 2018, published 2021)

Columns and labels:
Format in all cases: in vivo
[1] = test system: ragweed (common ragweed, Ambrosia elatior); assay: Test A preemergence, visual plant response rating; conditions: for Ragweed plant response rating: 125 g ai/ha, preemergence, 0 to 100 scale, 0 no effect, 100 complete control; for Ragweed plant response rating (0 to 100 scale): 500 g ai/ha Preemergence, approx. 10 days
In short: (§1)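 Preemergence: seeds in loam/sand blend given directed soil spray of compound in non-phytotoxic solvent with surfactant. Postemergence: plants 2–10 cm, one- to two-leaf stage, sprayed with same formulation. Visual injury rated vs untreated controls after ~10 days in greenhouse, 0 (no effect) to 100 (complete control).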

[2] = test system: pigweed (Amaranthus retroflexus); assay: Test A preemergence, visual plant response rating; conditions: for Pigweed plant response rating: 125 g ai/ha, preemergence, 0 to 100 scale, 0 no effect, 100 complete control; for Pigweed plant response rating (0 to 100 scale): 500 g ai/ha Preemergence, approx. 10 days
In short: as §1

[3] = test system: Italian ryegrass (Lolium multiflorum); assay: Test A preemergence, visual plant response rating; conditions: for Ryegrass, Italian plant response rating: 125 g ai/ha, preemergence, 0 to 100 scale, 0 no effect, 100 complete control; for Ryegrass, Italian plant response rating (0 to 100 scale): 500 g ai/ha Preemergence, approx. 10 days
In short: as §1

[4] = test system: kochia (Kochia scoparia); assay: Test A preemergence, visual plant response rating; conditions: for Kochia plant response rating: 125 g ai/ha, preemergence, 0 to 100 scale, 0 no effect, 100 complete control; for Kochia plant response rating (0 to 100 scale): 500 g ai/ha Preemergence, approx. 10 days
In short: as §1

[5] = test system: barnyardgrass (Echinochloa crus-galli); assay: Test A preemergence, visual plant response rating; conditions: for Barnyardgrass plant response rating: 125 g ai/ha, preemergence, 0 to 100 scale, 0 no effect, 100 complete control; for Barnyardgrass plant response rating (0 to 100 scale): 500 g ai/ha Preemergence, approx. 10 days
In short: as §1

[6] = test system: foxtail, giant (giant foxtail, Setaria faberii); assay: Test A preemergence, visual plant response rating; conditions: for Foxtail, Giant plant response rating: 125 g ai/ha, preemergence, 0 to 100 scale, 0 no effect, 100 complete control; for Foxtail, Giant plant response rating (0 to 100 scale): 500 g ai/ha Preemergence, approx. 10 days
In short: as §1

[7] = test system: galium (catchweed bedstraw, Galium aparine); assay: Test A postemergence, visual plant response rating; conditions: for Galium plant response rating (0 to 100 scale): 500 g ai/ha, postemergence, 0 is no effect, 100 is complete control; for Galium plant response rating: Postemergence, 125 g ai/ha, 0 to 100 scale (0 no effect, 100 complete control)
In short: as §1

[8] = test system: ragweed (common ragweed, Ambrosia elatior); assay: Test A postemergence, visual plant response rating; conditions: for Ragweed plant response rating (0 to 100 scale): 500 g ai/ha, postemergence, 0 is no effect, 100 is complete control; for Ragweed plant response rating: Postemergence, 125 g ai/ha, 0 to 100 scale (0 no effect, 100 complete control)
In short: as §1

[9] = test system: pigweed (Amaranthus retroflexus); assay: Test A postemergence, visual plant response rating; conditions: for Pigweed plant response rating (0 to 100 scale): 500 g ai/ha, postemergence, 0 is no effect, 100 is complete control; for Pigweed plant response rating: Postemergence, 125 g ai/ha, 0 to 100 scale (0 no effect, 100 complete control)
In short: as §1

[10] = test system: Italian ryegrass (Lolium multiflorum); assay: Test A postemergence, visual plant response rating; conditions: for Ryegrass, Italian plant response rating (0 to 100 scale): 500 g ai/ha, postemergence, 0 is no effect, 100 is complete control; for Ryegrass, Italian plant response rating: Postemergence, 125 g ai/ha, 0 to 100 scale (0 no effect, 100 complete control)
In short: as §1

[11] = test system: blackgrass (Alopecurus myosuroides); assay: Test A postemergence, visual plant response rating; conditions: for Blackgrass plant response rating (0 to 100 scale): 500 g ai/ha, postemergence, 0 is no effect, 100 is complete control; for Blackgrass plant response rating: Postemergence, 125 g ai/ha, 0 to 100 scale (0 no effect, 100 complete control)
In short: as §1

[12] = test system: corn (Zea mays); assay: Test A postemergence, visual plant response rating; conditions: for Corn plant response rating (0 to 100 scale): 500 g ai/ha, postemergence, 0 is no effect, 100 is complete control; for Corn plant response rating: Postemergence, 125 g ai/ha, 0 to 100 scale (0 no effect, 100 complete control)
In short: as §1

[13] = test system: kochia (Kochia scoparia); assay: Test A postemergence, visual plant response rating; conditions: for Kochia plant response rating (0 to 100 scale): 500 g ai/ha, postemergence, 0 is no effect, 100 is complete control; for Kochia plant response rating: Postemergence, 125 g ai/ha, 0 to 100 scale (0 no effect, 100 complete control)
In short: as §1

[14] = test system: barnyardgrass (Echinochloa crus-galli); assay: Test A postemergence, visual plant response rating; conditions: for Barnyardgrass plant response rating (0 to 100 scale): 500 g ai/ha, postemergence, 0 is no effect, 100 is complete control; for Barnyardgrass plant response rating: Postemergence, 125 g ai/ha, 0 to 100 scale (0 no effect, 100 complete control)
In short: as §1

[15] = test system: wheat (Triticum aestivum); assay: Test A postemergence, visual plant response rating; conditions: for Wheat plant response rating (0 to 100 scale): 500 g ai/ha, postemergence, 0 is no effect, 100 is complete control; for Wheat plant response rating: Postemergence, 125 g ai/ha, 0 to 100 scale (0 no effect, 100 complete control)
In short: as §1

[16] = test system: foxtail, giant (giant foxtail, Setaria faberii); assay: Test A postemergence, visual plant response rating; conditions: for Foxtail, Giant plant response rating (0 to 100 scale): 500 g ai/ha, postemergence, 0 is no effect, 100 is complete control; for Foxtail, Giant plant response rating: Postemergence, 125 g ai/ha, 0 to 100 scale (0 no effect, 100 complete control)
In short: as §1

[17] = test system: ducksalad (Heteranhera limosa); assay: Test B flooded paddy test, visual plant response rating; conditions: 250 g ai/ha, Flood, applied to paddy water, 2-leaf stage, evaluated after 13 to 15 days
In short: (§2)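 Plants were raised to the 2-leaf stage, then pots were flooded to 3 cm above the soil and test compound was applied directly into the paddy water. Water depth was held for the whole test; after 13 to 15 days in a greenhouse, responses were scored visually against controls.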

[18] = test system: sedge, umbrella (small-flower umbrella sedge, Cyperus difformis); assay: as above; conditions: 250 g ai/ha, Flood, applied to paddy water, 2-leaf stage, evaluated after 13 to 15 days
In short: as §2

[19] = test system: rice (Oryza sativa); assay: as above; conditions: 250 g ai/ha, Flood, applied to paddy water, 2-leaf stage, evaluated after 13 to 15 days
In short: as §2

[20] = test system: barnyardgrass (Echinochloa crus-galli); assay: as above; conditions: 250 g ai/ha, Flood, applied to paddy water, 2-leaf stage, evaluated after 13 to 15 days
In short: as §2

Compound	Ragweed plant response rating [1]	Ragweed plant response rating (0 to 100 scale) [1]	Pigweed plant response rating [2]	Pigweed plant response rating (0 to 100 scale) [2]	Ryegrass, Italian plant response rating [3]	Ryegrass, Italian plant response rating (0 to 100 scale) [3]	Kochia plant response rating [4]	Kochia plant response rating (0 to 100 scale) [4]	Barnyardgrass plant response rating [5]	Barnyardgrass plant response rating (0 to 100 scale) [5]	Foxtail, Giant plant response rating [6]	Foxtail, Giant plant response rating (0 to 100 scale) [6]	Galium plant response rating (0 to 100 scale) [7]	Galium plant response rating [7]	Ragweed plant response rating (0 to 100 scale) [8]	Ragweed plant response rating [8]	Pigweed plant response rating (0 to 100 scale) [9]	Pigweed plant response rating [9]	Ryegrass, Italian plant response rating (0 to 100 scale) [10]	Ryegrass, Italian plant response rating [10]	other results
CON=C(c1c(O)c(C)nn(C)c1=O)c1ccc(Cl)c2ccccc12 [Compound 40]	40	80	30	60	20	60	0	10	30	60	50	90	100	70	80	70	40	10	90	50	Blackgrass plant response rating (0 to 100 scale) [11]: 80; Blackgrass plant response rating [11]: 70; Corn plant response rating (0 to 100 scale) [12]: 10; Corn plant response rating [12]: 0; Kochia plant response rating (0 to 100 scale) [13]: 40; Kochia plant response rating [13]: 10; Barnyardgrass plant response rating (0 to 100 scale) [14]: 30; Barnyardgrass plant response rating [14]: 30; Wheat plant response rating (0 to 100 scale) [15]: 50; Wheat plant response rating [15]: 20; Foxtail, Giant plant response rating (0 to 100 scale) [16]: 50; Foxtail, Giant plant response rating [16]: 10; Plant response rating, Ducksalad (0 to 100 scale, 0 is no effect, 100 is complete control) [17]: 0; Plant response rating, Sedge, Umbrella (0 to 100 scale, 0 is no effect, 100 is complete control) [18]: 0; Plant response rating, Rice (0 to 100 scale, 0 is no effect, 100 is complete control) [19]: 0; Plant response rating, Barnyardgrass (0 to 100 scale, 0 is no effect, 100 is complete control) [20]: 0
CON=C(c1c(O)c(C)nn(C)c1=O)c1ccc(Cl)c2ccccc12 [Compound 130]	20	50	50	50	30	50	0	0	0	70	30	60	90	80	80	60	80	70	90	30	Blackgrass plant response rating (0 to 100 scale) [11]: 70; Blackgrass plant response rating [11]: 50; Corn plant response rating (0 to 100 scale) [12]: 30; Corn plant response rating [12]: 10; Kochia plant response rating (0 to 100 scale) [13]: 70; Kochia plant response rating [13]: 50; Barnyardgrass plant response rating (0 to 100 scale) [14]: 30; Barnyardgrass plant response rating [14]: 30; Wheat plant response rating (0 to 100 scale) [15]: 40; Wheat plant response rating [15]: 10; Foxtail, Giant plant response rating (0 to 100 scale) [16]: 70; Foxtail, Giant plant response rating [16]: 30; Plant response rating, Ducksalad (0 to 100 scale, 0 is no effect, 100 is complete control) [17]: 0; Plant response rating, Sedge, Umbrella (0 to 100 scale, 0 is no effect, 100 is complete control) [18]: 35; Plant response rating, Rice (0 to 100 scale, 0 is no effect, 100 is complete control) [19]: 0; Plant response rating, Barnyardgrass (0 to 100 scale, 0 is no effect, 100 is complete control) [20]: 0
